# Assay results published in paper PMC9609767, “Radiosynthesis and Preclinical Evaluation of an ^18F-Labeled Triazolopyridopyrazine-Based Inhibitor for Neuroimaging of the Phosphodiesterase 2A (PDE2A)” (Pharmaceuticals, 2022).
# Values joined by “and” are separate entries in the source; they are usually repeats but may differ in a detail not shown here. Identical values can stand only once. Like-named read-outs stand apart in the source and are kept apart here.
# Columns and labels:
# [1] = In vivo metabolism in CD-1 mice (radio-HPLC of plasma and brain); conditions: mouse
# Procedure: Two non-anesthetized female CD-1 mice (30 and 33 g, 90 days) were injected intravenously with [^18F]11 (28 MBq = 94 nmol/kg and 25 MBq = 78 nmol/kg). The animals were anesthetized by isoflurane inhalation at 28 min p.i. and blood was collected from the retro-orbital plexus, followed by cervical dislocation at 30 min p.i. Immediately afterwards, the brains were isolated, washed twice with isotonic saline and stored on ice. Plasma was obtained from the whole blood sample by centrifugation (8.000 rpm, 2 min, ambient temperature). All samples were weighed and the radioactivity was measured in a dose calibrator (ISOMED 2010 Dose Calibrator, NUVIA Instruments GmbH, Dresden, Germany). Afterwards, the brains were homogenized in 1 mL demineralized water on ice (Potter S, B. Braun Biotech, Melsungen, Germany).
# Protein precipitation was performed by the addition of ice-cold ACN/H2O (9:1, v/v) in a ratio of 4:1 (v/v) of organic solvent to plasma or brain homogenate, respectively. The samples were vortexed for 3 min, equilibrated on ice for 3 min, and centrifuged for 10 min at 10,000 rpm and the supernatant collected. The precipitates were washed with 100 μL of the solvent mixture and subjected to the same procedure. The combined supernatants were concentrated at 70 °C under argon flow to a final volume of approximately 100 μL and analysed by analytical radio-HPLC with a gradient system (see radiochemistry general section). The peak corresponding to the radiotracer in the radio-chromatogram was identified by co-injecting the sample with the reference compound 11. To determine the percentage of activity in the supernatants compared to total activity, aliquots of each step as well as the precipitates were quantified by an automated gamma counter (1480 WIZARD, Perkin Elmer, Turku, Finland). For plasma and brain samples recoveries of ≥91% of total activity were obtained.
# rat PDE2A = molecular target: T1, rat PDE2A (Rattus norvegicus, UniProt Q01062); experiment: In vitro autoradiography with rat brain cryosections; format: binding; conditions: for Kd: read-out: apparent KD
# T1 construct: Frozen sagittal 12 µm brain sections obtained from female SPRD and male Wistar-Han rats; from tissue; host or cells: rat brain cryosections (female SPRD and male Wistar-Han rats)
# T1 sequence (Q01062 1-928): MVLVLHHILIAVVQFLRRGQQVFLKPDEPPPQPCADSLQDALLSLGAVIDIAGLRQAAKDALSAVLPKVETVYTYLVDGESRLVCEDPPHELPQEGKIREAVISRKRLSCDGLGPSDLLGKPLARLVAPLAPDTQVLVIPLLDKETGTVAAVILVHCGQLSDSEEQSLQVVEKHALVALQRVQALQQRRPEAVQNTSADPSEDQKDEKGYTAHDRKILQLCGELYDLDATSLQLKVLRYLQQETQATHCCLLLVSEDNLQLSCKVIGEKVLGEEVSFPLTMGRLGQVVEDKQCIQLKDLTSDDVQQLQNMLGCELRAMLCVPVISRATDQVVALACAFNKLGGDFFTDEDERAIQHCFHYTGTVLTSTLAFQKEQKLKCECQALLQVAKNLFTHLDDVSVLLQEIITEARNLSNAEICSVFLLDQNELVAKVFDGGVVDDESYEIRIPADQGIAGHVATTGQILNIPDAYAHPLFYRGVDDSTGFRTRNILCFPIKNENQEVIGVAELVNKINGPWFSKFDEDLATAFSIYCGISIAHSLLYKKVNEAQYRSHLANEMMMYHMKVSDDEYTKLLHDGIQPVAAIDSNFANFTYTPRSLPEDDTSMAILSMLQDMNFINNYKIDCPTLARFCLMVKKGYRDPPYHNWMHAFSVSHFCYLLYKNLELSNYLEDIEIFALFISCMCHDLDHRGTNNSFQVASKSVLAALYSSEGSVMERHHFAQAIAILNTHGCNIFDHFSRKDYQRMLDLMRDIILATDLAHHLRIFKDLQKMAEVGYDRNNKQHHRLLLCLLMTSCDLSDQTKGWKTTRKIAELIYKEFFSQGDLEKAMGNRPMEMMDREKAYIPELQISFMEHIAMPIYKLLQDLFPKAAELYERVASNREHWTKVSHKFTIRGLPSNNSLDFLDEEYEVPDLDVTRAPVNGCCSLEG
# Procedure: Frozen sagittal 12 µm brain sections obtained from female SPRD and male Wistar-Han rats (10–12 weeks old) were thawed, dried in a stream of cold air, and pre-incubated for 15 min with incubation buffer (50 mM TRIS-HCl, pH 7.4; supplemented with 1 mM MgCl2, 1 mM CaCl2, 2 mM KCl, and 2 U/mL Adenosine deaminase) at ambient temperature. Afterwards, the buffer was decanted and the cryosections dried again in a stream of cold air before covering with the radioligand in incubation buffer (~0.1 MBq [^18F]11/mL; Am at the time of the incubation ~10 GBq/µmol) for incubation at ambient temperature for 90 min.
# The incubation was terminated by pouring off the incubation solution and washing the slides twice with ice-cold buffer (50 mM TRIS-HCl, pH 7.4/4 °C) for 2 min and rinsing by dipping in ice-cold demineralised water. Immediately afterwards, the sections were dried in a stream of cold air and exposed along with appropriate radioactive standards (1 µL of serial dilutions of the radioligand in incubation buffer, pipetted on a microscopic glass slide and air dried) to an ^18F-sensitive image plate for 120 min. Finally, the imaging plate was scanned at the highest possible resolution (pixel size 12.6 µm × 12.6 µm) in a phosphor imager (HD-CR 35; Duerr NDT GmbH, Bietigheim Bissingen, Germany) and the digital image analysed with an image analysis program (Aida Image Analyzer v. 4.26; Elysia-raytest GmbH, Straubenhardt, Germany).
# For the determination of the protein concentration, four dried 12 µm cryosections were scraped from the microscopic glass slides, transferred in an Eppendorf tube and solubilised with 200 µL of demineralised water. The protein concentration of this solution was determined by a commercial assay (Pierce™ BCA Protein Assay Kit, Thermo Fisher Scientific, Schwerte, Germany). The area of the cryosections was determined during the analysis of the digitized autoradiographic images, and the volume was calculated by multiplying the area with the thickness of the slices. Finally, the protein concentration of the tissue was calculated (37 mg protein/g wet weight).
# [2] = logD by shake flask method (n-octanol/PBS); format: physicochemical; conditions: n-octanol/phosphate-buffered saline, n = 4
# Procedure: In order to estimate the lipophilicity of [^18F]11, the partition coefficient was determined by the shake flask method using n-octanol and phosphate-buffered saline as partition system. […] The chemical stability of the radiotracer was investigated by incubation in phosphate-buffered saline (PBS) and n-octanol at 30 °C.
# The determination of stability and logD value has been performed according to the procedures described by Sadeghzadeh and Wenzel et al..
# [3] = 30 min p.i., i.v., n = 2 (individual values)
# [4] = caudate putamen, female SPRD rat
# [5] = caudate putamen, male Wistar-Han rat
structure (smiles),measurement,setting,value
CCCC(O)c1ccc([18F])c(-c2nnc3c(C)nc4ccc(C5CC5)nc4n23)c1 (centres unmarked) [[^18F]11],fraction of non-metabolized radiotracer in brain,[1]; [3],42/50
same,fraction of non-metabolized radiotracer in plasma,[1]; [3],about 7/11
same,radiometabolites in the brain (% of the activity),[1]; 30 min post injection,~ 50%
same,Kd,"rat PDE2A; caudate nucleus and putamen, homologous competition, overall value (SPRD and Wistar)",~200 pM and 240 pM
same,apparent Bmax,"rat PDE2A; caudate nucleus and putamen, overall value (SPRD and Wistar)",~20 pmol/mg protein and 16 pmol/mg protein
same,apparent Bmax,rat PDE2A; [4],14 pmol/mg protein
same,Kd,rat PDE2A; [4],380 pM
same,apparent Bmax,rat PDE2A; [5],18 pmol/mg protein
same,Kd,rat PDE2A; [5],100 pM
same,caudate putamen-to-cerebellum ratio,"rat PDE2A; in vitro autoradiography, equilibrium conditions",about 2
same,logD,[2],1.79 ± 0.66
